Source: patent US20240115566A1, “METHODS OF TREATING DISORDERS ASSOCIATED WITH CASTOR” (ST. JUDE CHILDREN'S RESEARCH HOSPITAL, INC., priority 2020, published 2024)
Read-outs that look alike come from different tables or passages of the source.

Tests used:
C3A cells = experiment: Total cellular CoA in C3A cells; type: cell-based, human; settings: 10 μM, 24 h
Method: Cell culture. Human C3A (HepG2/C3A) cells (#CRL-1074) were purchased from ATCC® and maintained in DMEM supplemented with 2 mM glutamine, 10% fetal bovine serum (Atlanta Biologicals), 50 U/ml penicillin and […] streptomycin. HEK293T cells (ATCC, #CRL-3216) were used for expression of human PCCA protein standard and were maintained in DMEM plus supplements as described above. Each cell line was confirmed to be mycoplasma-free. […] DMSO alone was added to control cultures. Culture medium was aspirated off the dish, cells were quickly washed with ice-cold phosphate-buffered saline that was quickly aspirated off the dish, and cells were quickly washed again with ice-cold water that was aspirated off to remove residual saline. Ice-cold water (1 ml) was added to the culture dish, cells were scraped into the cold water and the cell suspension was transferred to a glass test tube containing 400 μl of […] KOH and 1.5 ml water for analysis of total CoA content.

wild-type mice = experiment: Effect of PZ-3022 chow on liver CoA, amino acids and TCA metabolites in wild-type mice; type: in vivo, mouse
Method: FIGS. 20A-20E show liver CoASH (20A), liver C2-CoA (20B), liver C3-CoA (20C), liver C3:C2-CoA ratio (20D), and plasma and urine amino acid levels (20E). Number of mice in each group are shown in parenthesis. Amino acids were measured by mass spectrometry using warfarin as an internal standard except for glycine, which was measured as its benzoyl derivative. […] Two male (blue) and three female (red) mice were used for each determination.
Urinary TCA cycle metabolites eliminated over 24 h were quantified by mass spectrometry and normalized to mouse body weight. […] Male (blue) and female (red) mice were used for each determination. Number of mice in each group are shown in parenthesis.
(§1) Animal experiments. […] Water was supplied ad libitum.

C57BL/6J mice = experiment: Liver total CoA and drug exposure in C57BL/6J mice (gavage or chow)
[1] = test system: Pcca−/−PCCA(A138T)tg/0 (PA) mice; experiment: TCA cycle intermediates in urine of PZ-3022-treated PA mice; type: in vivo, mouse; settings: PZ-3022 therapy
Method: FIGS. 6A-6B show TCA cycle intermediates in plasma and urine of treated PA mice. Urinary TCA cycle metabolites eliminated over 24 h were quantified by mass spectrometry and normalized to mouse body weight. […] Three male (blue) and three female (red) mice were used for each determination.
as §1
Metabolites in urine and plasma. Water was added to a 24-h urine sample to a final volume of 1 ml for each mouse. To 100 μl of urine or 20 μl of plasma, warfarin standard was added at a final concentration of 0.2 μM and the sample was incubated at −80° C. for 1 hour. The sample was centrifuged at 6000×g for 10 minutes to remove precipitants and the supernatant was analyzed by LC/MS/MS. […] Solvent A was 0.1% formic acid in water, and Solvent B was acetonitrile+0.1% formic acid. […] The MRMs for metabolites in either the positive or negative mode were taken from. The MRMs for the warfarin internal standard were: negative mode, 307.1/161.0; and positive mode, 309.1/163.0. […] The relative amount of metabolite was normalized to the amount of warfarin. To improve glycine detection, this metabolite was measured after derivatization with benzoyl chloride using the technology and MRMs described.

[2] = test system: Pcca−/−PCCA(A138T)tg/0 (PA) mice
in vivo = settings: male, BALB/c, mouse, plasma; for bioavailability: oral
[3] = test system: Pcca−/−PCCA(A138T)tg/0 (PA) mice; experiment: Short-term (3-day gavage) PZ-3022 treatment of PA mice: liver CoA pools and carnitines
[4] = Pharmacokinetic evaluation in plasma of male BALB/c mice
[5] = test system: neuronal SynCre+ Pank1,2 dKO mice; experiment: Survival, weight gain and physiology of neuronal SynCre+ Pank1,2 dKO mice on Compound 1 chow; type: in vivo, mouse; settings: 75 ppm chow
From the text: All procedures were reviewed and approved by the St. Jude Children's Research Hospital Institutional Animal Care and Use Committee. […] The mice were maintained at room temperature, humidity 50±10% and a 14/10-hour light/dark cycle. […] Water was supplied ad libitum. Mice were randomized into the treatment arms at weaning.
Neuron-specific deletion of Pank1 and Pank2 was confirmed by PCR genotyping of brain and liver postmortem as described by Sharma et al.

[6] = 24 h urine normalized to body weight
[7] = 75 ppm chow to day 70, male and female
[8] = 10 or 30 mg/kg plus 50 mg/kg pantothenate, 3 doses

For `N#Cc1ccc(N2CCN(C(=O)Cc3ccc(C4CC4)cc3)CC2)nn1` [PZ-3022, 6-(4-(2-(4-cyclopropylphenyl)acetyl)piperazin-1-yl)pyridazine-3-carbonitrile], the “Elevation of total cellular CoA” value (C3A cells) was “just as effective at raising total CoA levels in cultured cells as PZ-2891”, the “Plasma and urine TCA cycle-related metabolite levels” value (wild-type mice; treated vs untreated wild-type mice) was “no differences” and the “Liver C3-CoA” value (wild-type mice; wild-type mice on PZ-3022 chow) was “not altered”. For the same compound, the “Liver CoASH” value (wild-type mice; wild-type mice on PZ-3022 chow) was “increased as expected”, the “Liver acetyl-CoA” value (wild-type mice; wild-type mice on PZ-3022 chow) was “increased as expected” and the “Plasma and urine amino acids” value (wild-type mice; wild-type mice on PZ-3022 chow) was “not changed with the exception of histidine being lower in plasma and higher in urine”. The “Elevation of hepatic total CoA” value (C57BL/6J mice; 10 mg/kg oral gavage every 24 h for three days, 4 h after last dose) was “slightly more potent in elevating CoA than PZ-2891”, the “Total liver CoA versus dose in chow” value (C57BL/6J mice; 7.5, 37.5 and 75 ppm in chow with 1000 ppm pantothenate, 1 week) was “dose response relationship” and the “Plasma and liver PZ-3022 levels versus dose in chow” value (C57BL/6J mice; 7.5, 37.5 and 75 ppm in chow, 1 week) was “dose-dependent increase in drug”. For the same compound, the “Hepatic CoA levels at 24 h” value (C57BL/6J mice; gavage) was “returned to the pre-dose level”, the “Time at which elevation of liver CoA begins after administration” value (C57BL/6J mice; gavage, C57BL/6J male mice) was 2 h and the “Time up to which elevation of liver CoA is maintained” value (C57BL/6J mice; gavage, C57BL/6J male mice) was “up to 8 h”. The “Circulating PZ-3022 at 24 h” value (C57BL/6J mice; gavage, plasma) was “not detected”, the “Parent drug levels in plasma and liver” value (C57BL/6J mice; same oral dosage, 75 ppm chow for 4 weeks) was “higher levels of circulating (FIG. 16C) and liver (FIG. 16D) PZ-3022 compared to PZ-2891” and the “Reduction in urinary methylmalonate” value ([1]; 24 h urine) was 47%. For the same compound, the “Reduction of urinary malate” value ([1]; 24 h urine) was 80%, the Urine citrate level [1, 6] was “significantly reduced” and the Urine malate level [1, 6] was “significantly reduced”. For the same compound, the Urine methylmalonate level [1, 6] was “significantly reduced”, the “Urine α-ketoglutarate level” value [1, 6] was “significantly reduced” and the “Liver CoASH” value ([2]; 75 ppm PZ-3022 + 1000 ppm pantothenate chow from day 21 to day 70, males and females) was “restored liver CoASH levels to wild-type”. For the same compound, the “Hepatic C3-CoA” value ([2]; 75 ppm chow to day 70) was “significant drop”, the “Liver C2-CoA” value ([2]; 75 ppm chow to day 70) was “restored to wild-type levels” and the “Liver C2-carnitine” value ([2]; 75 ppm chow to day 70) was “did not exhibit significant increases”. For the same compound, the Liver carnitine ([2]; 75 ppm chow to day 70) was “did not exhibit significant increases”, the “Plasma C3-carnitine” value ([2]; 75 ppm chow to day 70, female mice) was “reduced” and the “Liver C3-carnitine” value [2, 7] was “significantly decreased”. For the same compound, the “Plasma C2-carnitine” value [2, 7] was “significantly increased”, the Plasma carnitine [2, 7] was “increase” and the “Plasma C3-carnitine” value ([2]; 75 ppm chow to day 70, male mice) was “the same in the treated and untreated male mice”. The “Heart total CoA” value ([2]; PZ-3022 chow until 70 days of age) was “increased”, the “Reduction in C3-CoA in liver” value ([2]; PZ-3022 therapy) was 50% and the AUC(0-t) (in vivo; iv, 2 mg/kg) was 2960 ng·h/mL. For the same compound, the Cmax (in vivo; iv, 2 mg/kg) was 3290 ng/mL, the bioavailability (in vivo; 10 mg/kg) was 100% and the AUC(0-t) (in vivo; po, 10 mg/kg) was 16900 ng·h/mL. The “Liver total CoA” value ([3]; 10 and 30 mg/kg, 3 doses, fluorescent derivatization) was “significant, dose-dependent elevation”, the “Liver C2-CoA” value [3, 8] was “increased” and the “Liver C3-CoA” value [3, 8] was “decreased but was not eliminated”. For the same compound, the “Liver CoASH” value ([3]; 10 or 30 mg/kg plus 50 mg/kg pantothenate, 3 doses at 24 h, 4 h after last dose) was “significantly elevated”.

`CC(C)c1ccc(CC(=O)N2CCN(c3ccc(C#N)nn3)CC2)cc1` [PZ-2891] gave a Cmax (in vivo; iv, 2 mg/kg) of 2810 ng/mL, a bioavailability (in vivo; 10 mg/kg) of 46% and an AUCinf ([4]; i.v. 2 mg/kg) of 611.5 ng·h/mL. It also gave an AUClast ([4]; i.v. 2 mg/kg) of 608.6 ng·h/mL, a CL ([4]; i.v. 2 mg/kg) of 54.5 mL/min/kg and a T1/2 ([4]; i.v. 2 mg/kg) of 18 min. The Vss ([4]; i.v. 2 mg/kg) was 0.9 L/kg, the AUCinf ([4]; p.o. 10 mg/kg) was 1424.0 ng·h/mL and the AUClast ([4]; p.o. 10 mg/kg) was 1397.8 ng·h/mL. The “C0/Cmax (Cmax)” value ([4]; p.o. 10 mg/kg) was 1886.5 ng/mL and the Tmax ([4]; p.o. 10 mg/kg, 30% Captisol, male BALB/c mice, plasma) was 18 min.

In the case of `O=C(Cc1ccc(C2CC2)c(F)c1)N1CCN(c2ccc(Cl)nn2)CC1` [Compound 1], the “Growth rate, lifespan and movement dysfunction” value [5] is reported as “improvement of growth rate, lifespan, and movement dysfunction” and the “Weight gain, greater than untreated dKO” value ([5]; at the time of evaluation) is reported as 10%.
